Reference: ChEMBL document CHEMBL5608205, “Design, synthesis and biological evaluation of novel SIRT3 inhibitors targeting both NAD+ and substrate binding sites for the treatment of acute myeloid leukemia” (Eur J Med Chem, 2024)

Target: T1, NAD-dependent protein deacetylase sirtuin-3, mitochondrial (Homo sapiens, UniProt Q9NTG7)
T1 sequence (Q9NTG7 whole entry): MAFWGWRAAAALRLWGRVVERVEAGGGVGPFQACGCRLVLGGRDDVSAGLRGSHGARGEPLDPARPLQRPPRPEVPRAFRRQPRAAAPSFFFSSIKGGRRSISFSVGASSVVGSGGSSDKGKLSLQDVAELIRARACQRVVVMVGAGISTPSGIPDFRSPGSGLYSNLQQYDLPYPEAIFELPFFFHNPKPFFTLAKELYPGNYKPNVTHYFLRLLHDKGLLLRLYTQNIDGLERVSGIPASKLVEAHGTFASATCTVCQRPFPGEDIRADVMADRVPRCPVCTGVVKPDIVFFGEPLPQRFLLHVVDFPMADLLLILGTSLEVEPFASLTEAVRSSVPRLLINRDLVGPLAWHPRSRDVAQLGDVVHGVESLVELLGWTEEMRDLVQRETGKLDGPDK
Experiment: Inhibition of recombinant human SIRT3 using Fluor de lys as substrate incubated for 30 mins by fluorescence based analysis
Details: not given

| Structure (SMILES) | IC50 |
| --- | --- |
| NC(=O)c1cc2ncnc(N3[C@@H]4CC[C@H]3CN(C(=O)Nc3ccc(Cl)c(Cl)c3)C4)c2s1 | 0.125 µM |

Target: T2, NAD-dependent protein deacetylase sirtuin-2 (Homo sapiens, UniProt Q8IXJ6)
T2 sequence (Q8IXJ6 whole entry): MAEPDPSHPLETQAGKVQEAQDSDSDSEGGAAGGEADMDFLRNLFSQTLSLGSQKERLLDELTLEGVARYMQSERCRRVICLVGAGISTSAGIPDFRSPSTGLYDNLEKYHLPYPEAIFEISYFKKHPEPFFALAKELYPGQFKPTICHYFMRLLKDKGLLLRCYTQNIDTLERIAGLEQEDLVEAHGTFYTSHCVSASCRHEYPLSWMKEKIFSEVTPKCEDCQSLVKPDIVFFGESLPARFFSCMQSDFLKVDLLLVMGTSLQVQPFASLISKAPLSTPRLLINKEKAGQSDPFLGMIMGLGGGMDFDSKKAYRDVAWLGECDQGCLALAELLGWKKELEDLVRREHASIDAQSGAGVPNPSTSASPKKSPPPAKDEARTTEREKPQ
Experiment: Inhibition of recombinant human SIRT2 using Fluor de lys as substrate incubated for 30 mins by fluorescence based analysis
Details: not given

| Structure (SMILES) | IC50 |
| --- | --- |
| NC(=O)c1cc2ncnc(N3[C@@H]4CC[C@H]3CN(C(=O)Nc3ccc(C(F)(F)F)cc3)C4)c2s1 | 0.474 µM |

Test system: HL-60
Experiment: Induction of apoptosis in human HL-60 cells assessed as viable cells at […] incubated for 24 hrs by annexin V/FITC and Propidium Iodide staining based flow cytometry analysis (reference value: 98.9%)
Assay type: functional
Details: dose 2.5 µM, read-out: Activity

| Structure (SMILES) | viability at […] |
| --- | --- |
| NC(=O)c1cc2ncnc(N3[C@@H]4CC[C@H]3CN(C(=O)Nc3ccc(C(F)(F)F)cc3)C4)c2s1 | 84.5% |

Test system: HL-60
Experiment: Induction of apoptosis in human HL-60 cells assessed as viable cells at 5 uM incubated for 24 hrs by annexin V/FITC and Propidium Iodide staining based flow cytometry analysis (reference value: 98.9%)
Assay type: functional
Details: read-out: Activity

| Structure (SMILES) | viability at 5 µM |
| --- | --- |
| NC(=O)c1cc2ncnc(N3[C@@H]4CC[C@H]3CN(C(=O)Nc3ccc(C(F)(F)F)cc3)C4)c2s1 | 78.2% |

Test system: HL-60
Experiment: Induction of apoptosis in human HL-60 cells assessed as viable cells at 10 uM incubated for 24 hrs by annexin V/FITC and Propidium Iodide staining based flow cytometry analysis (reference value: 98.9%)
Assay type: functional
Details: read-out: Activity

| Structure (SMILES) | viability at 10 µM |
| --- | --- |
| NC(=O)c1cc2ncnc(N3[C@@H]4CC[C@H]3CN(C(=O)Nc3ccc(C(F)(F)F)cc3)C4)c2s1 | 73% |

Test system: MOLM-13
Experiment: Induction of apoptosis in human MOLM-13 cells assessed as viable cells at […] incubated for 24 hrs by annexin V/FITC and Propidium Iodide staining based flow cytometry analysis (reference value: 98.1%)
Assay type: functional
Details: dose 2.5 µM, read-out: Activity

| Structure (SMILES) | viability at […] |
| --- | --- |
| NC(=O)c1cc2ncnc(N3[C@@H]4CC[C@H]3CN(C(=O)Nc3ccc(C(F)(F)F)cc3)C4)c2s1 | 90.4% |

Test system: MOLM-13
Experiment: Induction of apoptosis in human MOLM-13 cells assessed as viable cells at 5 uM incubated for 24 hrs by annexin V/FITC and Propidium Iodide staining based flow cytometry analysis (reference value: 98.1%)
Assay type: functional
Details: read-out: Activity

| Structure (SMILES) | viability at 5 µM |
| --- | --- |
| NC(=O)c1cc2ncnc(N3[C@@H]4CC[C@H]3CN(C(=O)Nc3ccc(C(F)(F)F)cc3)C4)c2s1 | 67.5% |

Test system: MOLM-13
Experiment: Induction of apoptosis in human MOLM-13 cells assessed as viable cells at 10 uM incubated for 24 hrs by annexin V/FITC and Propidium Iodide staining based flow cytometry analysis (reference value: 98.1%)
Assay type: functional
Details: read-out: Activity

| Structure (SMILES) | viability at 10 µM |
| --- | --- |
| NC(=O)c1cc2ncnc(N3[C@@H]4CC[C@H]3CN(C(=O)Nc3ccc(C(F)(F)F)cc3)C4)c2s1 | 62.5% |

Test system: MV4-11
Experiment: Induction of apoptosis in human MV4-11 cells assessed as viable cells at […] incubated for 24 hrs by annexin V/FITC and Propidium Iodide staining based flow cytometry analysis (reference value: 95.4%)
Assay type: functional
Details: dose 2.5 µM, read-out: Activity

| Structure (SMILES) | viability at […] |
| --- | --- |
| NC(=O)c1cc2ncnc(N3[C@@H]4CC[C@H]3CN(C(=O)Nc3ccc(C(F)(F)F)cc3)C4)c2s1 | 85.7% |

Test system: MV4-11
Experiment: Induction of apoptosis in human MV4-11 cells assessed as viable cells at 5 uM incubated for 24 hrs by annexin V/FITC and Propidium Iodide staining based flow cytometry analysis (reference value: 95.4%)
Assay type: functional
Details: read-out: Activity

| Structure (SMILES) | viability at 5 µM |
| --- | --- |
| NC(=O)c1cc2ncnc(N3[C@@H]4CC[C@H]3CN(C(=O)Nc3ccc(C(F)(F)F)cc3)C4)c2s1 | 78.2% |

Test system: MV4-11
Experiment: Induction of apoptosis in human MV4-11 cells assessed as viable cells at 10 uM incubated for 24 hrs by annexin V/FITC and Propidium Iodide staining based flow cytometry analysis (reference value: 95.4%)
Assay type: functional
Details: read-out: Activity

| Structure (SMILES) | viability at 10 µM |
| --- | --- |
| NC(=O)c1cc2ncnc(N3[C@@H]4CC[C@H]3CN(C(=O)Nc3ccc(C(F)(F)F)cc3)C4)c2s1 | 65% |

Test system: not listed separately
Experiment: Toxicity in nude mouse assessed as effect on brain at 5 mg/kg, ip administered daily for upto 14 days
Assay type: organism-based
Details: in vivo, 336 h, time < 14 day

| Structure (SMILES) | Activity |
| --- | --- |
| NC(=O)c1cc2ncnc(N3[C@@H]4CC[C@H]3CN(C(=O)Nc3ccc(C(F)(F)F)cc3)C4)c2s1 | Non-Toxic |

Test system: not listed separately
Experiment: Toxicity in nude mouse assessed as effect on heart at 5 mg/kg, ip administered daily for upto 14 days
Assay type: organism-based
Details: in vivo, 336 h, time < 14 day

| Structure (SMILES) | Activity |
| --- | --- |
| NC(=O)c1cc2ncnc(N3[C@@H]4CC[C@H]3CN(C(=O)Nc3ccc(C(F)(F)F)cc3)C4)c2s1 | Non-Toxic |

Test system: not listed separately
Experiment: Toxicity in nude mouse assessed as effect on liver at 5 mg/kg, ip administered daily for upto 14 days
Assay type: organism-based
Details: in vivo, 336 h, time < 14 day

| Structure (SMILES) | Activity |
| --- | --- |
| NC(=O)c1cc2ncnc(N3[C@@H]4CC[C@H]3CN(C(=O)Nc3ccc(C(F)(F)F)cc3)C4)c2s1 | Non-Toxic |

Test system: not listed separately
Experiment: Toxicity in nude mouse assessed as effect on spleen at 5 mg/kg, ip administered daily for upto 14 days
Assay type: organism-based
Details: in vivo, 336 h, time < 14 day

| Structure (SMILES) | Activity |
| --- | --- |
| NC(=O)c1cc2ncnc(N3[C@@H]4CC[C@H]3CN(C(=O)Nc3ccc(C(F)(F)F)cc3)C4)c2s1 | Non-Toxic |

Test system: not listed separately
Experiment: Toxicity in nude mouse assessed as effect on lung at 5 mg/kg, ip administered daily for upto 14 days
Assay type: organism-based
Details: in vivo, 336 h, time < 14 day

| Structure (SMILES) | Activity |
| --- | --- |
| NC(=O)c1cc2ncnc(N3[C@@H]4CC[C@H]3CN(C(=O)Nc3ccc(C(F)(F)F)cc3)C4)c2s1 | Non-Toxic |

Test system: not listed separately
Experiment: Toxicity in nude mouse assessed as effect on kidney at 5 mg/kg, ip administered daily for upto 14 days
Assay type: organism-based
Details: in vivo, 336 h, time < 14 day

| Structure (SMILES) | Activity |
| --- | --- |
| NC(=O)c1cc2ncnc(N3[C@@H]4CC[C@H]3CN(C(=O)Nc3ccc(C(F)(F)F)cc3)C4)c2s1 | Non-Toxic |

Test system: not listed separately
Experiment: Toxicity in nude mouse assessed as effect on body weight at 5 mg/kg, ip administered daily for upto 14 days
Assay type: organism-based
Details: in vivo, 336 h, time < 14 day

| Structure (SMILES) | Activity |
| --- | --- |
| NC(=O)c1cc2ncnc(N3[C@@H]4CC[C@H]3CN(C(=O)Nc3ccc(C(F)(F)F)cc3)C4)c2s1 | Non-Toxic |

Target: T1, NAD-dependent protein deacetylase sirtuin-3, mitochondrial
Experiment: Inhibition of wild type C-terminal human SIRT3 (118 to […] residues) expressed in Escherichia coli strain BL21DE3 Rosetta2 using Fluor de lys as substrate incubated for 30 mins by fluorescence based analysis
Details: not given

| Structure (SMILES) | IC50 |
| --- | --- |
| Oc1cc(O)cc(/C=C/c2ccc(Br)cc2)c1 | 143 µM |

Target: T2, NAD-dependent protein deacetylase sirtuin-2
Experiment: Inhibition of SIRT2 (unknown origin)
Details: not given

| Structure (SMILES) | IC50 |
| --- | --- |
| CCNC(=S)c1ccc(C(=O)NCCC2CCN(c3ncnc4cc(C(N)=O)sc34)CC2)s1 | 0.0027 µM |

Test system: MOLM-13
Experiment: cells
Details: Homo sapiens, MOLM-13, 24 h

| Structure (SMILES) | IC50 |
| --- | --- |
| c1cncc(-c2cnn[nH]2)c1 | 12.6 µM |
| C#Cc1cccc(NC(=O)N2C[C@H]3C[C@@H](C2)N3c2ncnc3cc(C(N)=O)sc23)c1 | 33.2 µM |
| NC(=O)c1cc2ncnc(N3CCN(C(=O)Nc4ccccc4F)CC3)c2s1 | 39.8 µM |
| Cc1ccc(NC(=O)N2C[C@H]3C[C@@H](C2)N3c2ncnc3cc(C(N)=O)sc23)cc1 | > 50 µM |
| NC(=O)c1cc2ncnc(N3[C@@H]4CC[C@H]3CN(C(=O)Nc3ccc5ccccc5c3)C4)c2s1 | 10.6 µM |
| NC(=O)c1cc2ncnc(N3CCN(C(=O)Nc4cc(Cl)cc(Cl)c4)CC3)c2s1 | 3.47 µM |
| NC(=O)c1cc2ncnc(N3[C@@H]4CC[C@H]3CN(C(=O)Nc3ccc(Cl)c(Cl)c3)C4)c2s1 | 2.35 µM |

Test system: MV4-11
Experiment: cells
Details: Homo sapiens, MV4-11, 24 h

| Structure (SMILES) | IC50 |
| --- | --- |
| c1cncc(-c2cnn[nH]2)c1 | 27.8 µM |
| C#Cc1cccc(NC(=O)N2C[C@H]3C[C@@H](C2)N3c2ncnc3cc(C(N)=O)sc23)c1 | 28.7 µM |
| NC(=O)c1cc2ncnc(N3CCN(C(=O)Nc4ccccc4F)CC3)c2s1 | > 50 µM |
| Cc1ccc(NC(=O)N2C[C@H]3C[C@@H](C2)N3c2ncnc3cc(C(N)=O)sc23)cc1 | > 50 µM |
| NC(=O)c1cc2ncnc(N3[C@@H]4CC[C@H]3CN(C(=O)Nc3ccc5ccccc5c3)C4)c2s1 | 14.7 µM |
| NC(=O)c1cc2ncnc(N3CCN(C(=O)Nc4cc(Cl)cc(Cl)c4)CC3)c2s1 | 7.28 µM |
| NC(=O)c1cc2ncnc(N3[C@@H]4CC[C@H]3CN(C(=O)Nc3ccc(Cl)c(Cl)c3)C4)c2s1 | 5.09 µM |

Test system: HL-60
Experiment: cells
Details: Homo sapiens, HL-60, 24 h

| Structure (SMILES) | IC50 |
| --- | --- |
| c1cncc(-c2cnn[nH]2)c1 | > 50 µM |
| C#Cc1cccc(NC(=O)N2C[C@H]3C[C@@H](C2)N3c2ncnc3cc(C(N)=O)sc23)c1 | 38.2 µM |
| NC(=O)c1cc2ncnc(N3CCN(C(=O)Nc4ccccc4F)CC3)c2s1 | > 50 µM |
| Cc1ccc(NC(=O)N2C[C@H]3C[C@@H](C2)N3c2ncnc3cc(C(N)=O)sc23)cc1 | > 50 µM |
| NC(=O)c1cc2ncnc(N3[C@@H]4CC[C@H]3CN(C(=O)Nc3ccc5ccccc5c3)C4)c2s1 | 17.4 µM |
| NC(=O)c1cc2ncnc(N3CCN(C(=O)Nc4cc(Cl)cc(Cl)c4)CC3)c2s1 | 5.45 µM |
| NC(=O)c1cc2ncnc(N3[C@@H]4CC[C@H]3CN(C(=O)Nc3ccc(Cl)c(Cl)c3)C4)c2s1 | 1.15 µM |
